# From patent publication US7163960B2, “Treatment and prevention of inflammatory disorders” (Monsanto Technology L.L.C., priority 2002, dated 2007)
# “Also recorded” adds a separate entry of the source. Marks after values point to notes of the source that are not given here.
# Key:
# IL-1β = IL-1β synthesis in LPS-treated whole blood; format: in vivo, human; settings: for IL-1β synthesis in LPS-treated whole blood: mean ± SD
# Protocol: (§1) Following a 3-week run-in period, subjects ingested either ALA, SDA, EPA supplied as ethyl esters in capsules. Intakes were 0.75 g/day for 3 weeks followed by 1.5 g/day for the subsequent 3 weeks.
# (§2) Blood (4 mL) was added to heparinised tubes, bacterial lipopolysaccharide (LPS) was added (200 ng/mL), and the mixture was incubated at 37° C., 5% CO2, for 24 h. Plasma was collected and assayed for prostaglandin E2 (PGE2) by radioimmunoassay (RIA), interleukin-1β (IL-1β) and tumor necrosis factor-α (TNF-α) by ELISA, as described in Mantzioris et al., supra.
# prostaglandin E2 (PGE2) = assay: PGE2 synthesis in LPS-stimulated whole blood; format: in vivo, human; settings: for PGE2 synthesis in LPS-stimulated whole blood: mean ± SD
# Protocol: as §1, §2
# [1] = Fatty acid analysis of blood cell phospholipids and plasma lipid fractions after ingestion of test fatty acids; format: in vivo, human; settings: for Effect on tissue levels of DHA (FIG. 1): erythrocytes and plasma phospholipids; for DHA (% of total fatty acids), Erythrocyte phospholipid / DHA (% of total fatty acids), Plasma phospholipid / DPA (% of total fatty acids), Erythrocyte phospholipid / DPA (% of total fatty acids), Plasma phospholipid / EPA (% of total fatty acids), Monocyte / EPA (% of total fatty acids), Plasma CE / EPA (% of total fatty acids), Plasma Phospholipid / EPA (% of total fatty acids), Plasma TG / EPA (% of total fatty acids), Platelet / EPA (% of total fatty acids), Red Blood: both, human, in vivo
# Source text: (§3) 45 males and post-menopausal female—19–65 years of age, normolipidemic, and with a body mass index (BMI) in the range 20 to 30, were recruited. Exclusion criteria included bleeding disorders, hypertension, inflammatory disorders, active gastrointestinal diseases, chronic use of low dose aspirin, consumption of restaurant or takeaway evening meals more than twice per week, use of dietary supplements rich in n-3 or n-6 fatty acids, habitual consumption of more than 1 fish meal per month, and plasma phospholipid EPA+DHA levels>7.9% of total fatty acids (level achieved in the study group was 4.9±1.0% of total fatty acids).
# as §1
# At each visit, 36 mL of blood was taken by venepuncture after an overnight fast. Blood was aliquoted into various tubes for the following procedures.
# Blood (20 mL) was added to tubes containing 4 mL 4.5% EDTA in water and 4 mL—6% dextran in normal saline, pH 7.0. Erythrocytes were allowed to sediment under gravity at 37° C. for 30 min. The leucocyte-rich plasma was layered onto LYMPHOPREP, density 1.077 (Nycomed Pharma, Oslo) and centrifuged at 110 g for 10 min to separate leucocytes from the platelets, which were removed. The gradient was further centrifuged at 200 g for 20 min to separate the neutrophils from mononuclear cells, which were removed.
# Samples were processed for fatty acid analysis as described in Mantzioris et al., Am. J. Clin. Nutr., 72:42–8 (2000). Plasma, washed platelet and mononuclear cell pellets were stored at −80° C. Erythrocyte pellets were treated fresh with chloroform:isopropanol (2:1) and the lipid extracts stored at 4° C. Plasma, platelet and mononuclear cell pellets were extracted with chloroform:methanol. The cellular and plasma lipid extracts were fractionated by thin-layer chromatography. For the cellular extracts, the phospholipid fraction was retained and for the plasma extracts, the phospholipid, cholesterol ester, and triglyceride fractions were retained. These were transesterified by methanolysis (1% H2SO4 in methanol at 70° C. for 3 h). Fatty acid methyl esters were separated and quantified with a HEWLETT-PACKARD 6890 gas chromatograph equipped with a 50 m capillary column coated with BPX-70 (0.25 μm film thickness; SGE Pty Ltd, Victoria, Australia) (see Mantzioris et al., supra). Fatty acid standards were obtained from NuChek Prep Inc. (Elysian, Minn.) and included stearidonic acid obtained from Sigma Aldrich Pty Ltd. (Castle Hill, NSW, Australia). All organic solvents contained butylated hydroxy anisole (0.005%) as an antioxidant.
# TNF-α = TNF-α synthesis in LPS-treated whole blood; format: in vivo, human; settings: for TNF-α synthesis in LPS-treated whole blood: mean ± SD
# Protocol: as §1, §2
# C-reactive protein = assay: Clinical study of SDA on down-regulating C-reactive protein; format: in vivo, human; settings: Example 3, described in present tense; about 0.75 then 1.5 g/day
# Source text: as §3, with “Approximately 35–50” for “45”, “female -19–65” for “female—19–65”, “are” for “were”, “include” for “included”, “acids. Subjects are randomly allocated to one” for “acids (level achieved in the study group was 4.9±1.0%”, “three groups, designated ALA, SDA, and EPA. […]” for “total fatty acids).”
# C-reactive protein (Hs-CRP) in plasma can be analyzed by use of latex-enhanced immunonephelometric assay on a BN II analyzer (Rifai et al. Clinical efficacy of an automated high-sensitivity C-reactive protein assay. Clin. Chem […];45:2136). […]
# Subjects are weighed at each visit for change in weight during the trial. […] Fatty acids are analyzed between dietary groups in EPA concentration in erythrocyte or plasma phospholipids. The effect of ingestion of EPA, ALA or SDA at 0.75 g/day (weeks 0 to 3) or 1.5 g/day (weeks 3 to 6) is determined with respect to EPA concentration in the phospholipid fractions of erythrocytes and plasma. Effects on DPA concentration in the phospholipid fractions of erythrocytes and plasma are also analyzed.
# leukotrienes = settings: U.S. Pat. No. 5,158,975; cited from earlier work
# [2] = Week 3 (after 0.75 g/day for 3 weeks)
# [3] = Week 6 (after 1.5 g/day for 3 weeks)
# [4] = Week −3 (start of run-in, before dosing)
smiles,measurement,setting,value
"CC/C=C\C/C=C\C/C=C\C/C=C\CCCCC(=O)O [SDA, stearidonic acid]",Effect on LPS-stimulated IL-1β synthesis,IL-1β; 0.75 g/day or 1.5 g/day (either dose),significantly decreased
same,IL-1β synthesis in LPS-treated whole blood,IL-1β; Week 0 (baseline),94.7 ± 29.3^b ng/mL
same,IL-1β synthesis in LPS-treated whole blood,IL-1β; [2],81.4 ± 21.9^c ng/mL
same,IL-1β synthesis in LPS-treated whole blood,IL-1β; [3],77.8 ± 26.4^c ng/mL
same,IL-1β synthesis in LPS-treated whole blood,IL-1β; [4],106.9 ± 33.0^a ng/mL
same,Effect on LPS-stimulated PGE2 synthesis,prostaglandin E2 (PGE2); 1.5 g/day,no change
same,Effect on LPS-stimulated PGE2 synthesis,"prostaglandin E2 (PGE2); Visit 3, following ingestion of 0.75 g",statistically significant increases
same,PGE2 synthesis in LPS-stimulated whole blood,prostaglandin E2 (PGE2); Week 0 (baseline),*4.64 ± 1.09^a ng/mL
same,PGE2 synthesis in LPS-stimulated whole blood,prostaglandin E2 (PGE2); [2],6.26 ± 2.56^b ng/mL
same,PGE2 synthesis in LPS-stimulated whole blood,prostaglandin E2 (PGE2); [3],4.61 ± 0.95^a ng/mL
same,PGE2 synthesis in LPS-stimulated whole blood,prostaglandin E2 (PGE2); [4],3.97 ± 1.48^a ng/mL
same,Effect on EPA concentration in the phospholipid fractions of erythrocytes and plasma,[1]; 0.75 g/day (weeks 0 to 3),significantly increased
same,Effect on DPA concentration in the phospholipid fractions of erythrocytes and plasma,[1]; 1.5 g/day,significantly increased; also recorded: elevated
same,Effect on EPA concentration in the phospholipid fractions of erythrocytes and plasma,[1]; 1.5 g/day (weeks 3 to 6),significantly increased; also recorded: elevated
same,Effect on tissue levels of DHA (FIG. 1),[1]; 1.5 g/day,not DHA
same,Efficiency relative to ALA at elevating tissue EPA levels,[1]; in humans,about four times more efficient than ALA
same,Effect on LPS-stimulated TNF synthesis,TNF-α; 1.5 g/day,statistically significant decreases
same,TNF-α synthesis in LPS-treated whole blood,TNF-α; Week 0 (baseline),43.7 ± 18.7^a ng/mL
same,TNF-α synthesis in LPS-treated whole blood,TNF-α; [2],37.7 ± 14.2^ab ng/mL
same,TNF-α synthesis in LPS-treated whole blood,TNF-α; [3],34.1 ± 12.0^b ng/mL
same,TNF-α synthesis in LPS-treated whole blood,TNF-α; [4],37.6 ± 14.6^ab ng/mL
same,Effect of SDA intake on C-reactive protein,C-reactive protein,decrease in C-reactive protein
same,Effect on biosynthesis of leukotrienes,leukotrienes,inhibit biosynthesis of leukotrienes
"CC/C=C\C/C=C\C/C=C\C/C=C\C/C=C\CCCC(=O)O [EPA, eicosapentaenoic acid]",IL-1β synthesis in LPS-treated whole blood,IL-1β; Week 0 (baseline),92.0 ± 25.4^a ng/mL
same,IL-1β synthesis in LPS-treated whole blood,IL-1β; [2],75.3 ± 27.6^b ng/mL
same,IL-1β synthesis in LPS-treated whole blood,IL-1β; [3],73.5 ± 16.4^b ng/mL
same,IL-1β synthesis in LPS-treated whole blood,IL-1β; [4],"93.1 ± 26.8^a1,b ng/mL"
same,PGE2 synthesis in LPS-stimulated whole blood,prostaglandin E2 (PGE2); Week 0 (baseline),4.21 ± 1.59 ng/mL
same,PGE2 synthesis in LPS-stimulated whole blood,prostaglandin E2 (PGE2); [2],5.05 ± 2.16 ng/mL
same,PGE2 synthesis in LPS-stimulated whole blood,prostaglandin E2 (PGE2); [3],4.46 ± 1.47 ng/mL
same,PGE2 synthesis in LPS-stimulated whole blood,prostaglandin E2 (PGE2); [4],"3.78 ± 1.95^1,2 ng/mL"
same,Effect on LPS-stimulated PGE2 synthesis,"prostaglandin E2 (PGE2); overall, either dose",no effect
same,Effect on DPA concentration in the phospholipid fractions of erythrocytes and plasma,[1]; 0.75 g/day,significantly increased
same,Effect on EPA concentration in the phospholipid fractions of erythrocytes and plasma,[1]; 0.75 g/day (weeks 0 to 3),significantly increased
same,Effect on DPA concentration in the phospholipid fractions of erythrocytes and plasma,[1]; 1.5 g/day,significantly increased; also recorded: elevated
same,Effect on EPA concentration in the phospholipid fractions of erythrocytes and plasma,[1]; 1.5 g/day (weeks 3 to 6),significantly increased; also recorded: elevated
same,"DHA (% of total fatty acids), Erythrocyte phospholipid",[1]; 0 week,4.62 ± 0.69^b % of total fatty acids
same,"DHA (% of total fatty acids), Plasma phospholipid",[1]; 0 weeks,3.75 ± 0.77^ab % of total fatty acids
same,"DPA (% of total fatty acids), Erythrocyte phospholipid",[1]; 0 weeks,2.81 ± 0.24^a % of total fatty acids
same,"DPA (% of total fatty acids), Plasma phospholipid",[1]; 0 weeks,1.34 ± 0.22^a % of total fatty acids
same,"EPA (% of total fatty acids), Monocyte",[1]; 0 weeks,0.52 (0.11)a % of total fatty acids
same,"EPA (% of total fatty acids), Plasma CE",[1]; 0 weeks,1.02 (0.20)a % of total fatty acids
same,"EPA (% of total fatty acids), Plasma Phospholipid",[1]; 0 weeks,1.04 (0.23)a % of total fatty acids
same,"EPA (% of total fatty acids), Plasma TG",[1]; 0 weeks,0.27 (0.09)a % of total fatty acids
same,"EPA (% of total fatty acids), Platelet",[1]; 0 weeks,0.45 (0.09)a % of total fatty acids
same,"EPA (% of total fatty acids), Red Blood",[1]; 0 weeks,0.81 (0.14)^a % of total fatty acids
same,"EPA (% of total fatty acids), Monocyte",[1]; 3 weeks,1.38 (0.35)b1 % of total fatty acids
same,"EPA (% of total fatty acids), Plasma CE",[1]; 3 weeks,2.95 (0.74)b1 % of total fatty acids
same,"EPA (% of total fatty acids), Plasma Phospholipid",[1]; 3 weeks,2.71 (0.71)b1 % of total fatty acids
same,"EPA (% of total fatty acids), Plasma TG",[1]; 3 weeks,0.73 (0.20)b1 % of total fatty acids
same,"EPA (% of total fatty acids), Platelet",[1]; 3 weeks,1.08 (0.26)b1 % of total fatty acids
same,"EPA (% of total fatty acids), Red Blood",[1]; 3 weeks,1.60 (0.31)^b1 % of total fatty acids
same,"EPA (% of total fatty acids), Monocyte",[1]; 6 weeks,2.25 (0.74)c1 % of total fatty acids
same,"EPA (% of total fatty acids), Plasma CE",[1]; 6 weeks,4.53 (1.31)c1 % of total fatty acids
same,"EPA (% of total fatty acids), Plasma Phospholipid",[1]; 6 weeks,4.48 (1.35)c1 % of total fatty acids
same,"EPA (% of total fatty acids), Plasma TG",[1]; 6 weeks,1.23 (0.47)c1 % of total fatty acids
same,"EPA (% of total fatty acids), Platelet",[1]; 6 weeks,1.68 (0.43)c1 % of total fatty acids
same,"EPA (% of total fatty acids), Red Blood",[1]; 6 weeks,2.56 (0.65)^c1 % of total fatty acids
same,"DHA (% of total fatty acids), Erythrocyte phospholipid",[1]; -3 week,"5.02 ± 0.89^a1,2 % of total fatty acids"
same,"DHA (% of total fatty acids), Plasma phospholipid",[1]; -3 weeks,3.97 ± 1.06^a % of total fatty acids
same,"DPA (% of total fatty acids), Erythrocyte phospholipid",[1]; -3 weeks,"2.92 ± 0.45^a1,2 % of total fatty acids"
same,"DPA (% of total fatty acids), Plasma phospholipid",[1]; -3 weeks,1.31 ± 0.29^a % of total fatty acids
same,"EPA (% of total fatty acids), Monocyte",[1]; -3 weeks,0.66 (0.32)^a % of total fatty acids
same,"EPA (% of total fatty acids), Plasma CE",[1]; -3 weeks,1.03 (0.34)^a % of total fatty acids
same,"EPA (% of total fatty acids), Plasma Phospholipid",[1]; -3 weeks,1.10 (0.40)^a % of total fatty acids
same,"EPA (% of total fatty acids), Plasma TG",[1]; -3 weeks,0.31 (0.15)^a % of total fatty acids
same,"EPA (% of total fatty acids), Platelet",[1]; -3 weeks,0.44 (0.12)^a % of total fatty acids
same,"EPA (% of total fatty acids), Red Blood",[1]; -3 weeks,0.85 (0.16)^a % of total fatty acids
same,Effect on tissue levels of DHA (FIG. 1),[1]; 1.5 g/day,decreased
same,Change in erythrocyte DHA,[1]; higher dose (1.5 g/day),"slight, but statistically significant decrease"
same,TNF-α synthesis in LPS-treated whole blood,TNF-α; Week 0 (baseline),38.9 ± 12.5^a ng/mL
same,TNF-α synthesis in LPS-treated whole blood,TNF-α; [2],32.0 ± 11.8^ab ng/mL
same,TNF-α synthesis in LPS-treated whole blood,TNF-α; [3],27.6 ± 10.6^b ng/mL
same,TNF-α synthesis in LPS-treated whole blood,TNF-α; [4],"36.6 ± 16.53^a1,2 ng/mL"
